# Experimental data published in US12594279B2, “Composition for preventing or treating TNF-α-related disease, comprising hydroflumethiazide as active ingredient” (SK CHEMICALS CO., LTD., priority 2020, dated 2026).
# Counter-ions that a name gives are not always drawn.
# Legend:
# [1] = system: rheumatoid arthritis DBA-1J mouse model; assay: Size of lower extremity edema  in rheumatoid arthritis DBA-1J mouse model; assay type: in vivo; design: Size of lower extremity edema, Right Feet / Size of lower extremity edema, Left Feet: unit not given here
# Procedure: (§1) DBA-1J mice were purchased from Central Lab. Animal Inc. Bovine Type II collagen (2 mg/mL) was emulsified in 4 mg/mL of Complete Freund's adjuvant at 1:1, and then injected subcutaneously to the DBA-1J mice at the base of the tail with 100 μL/head to induce arthritis first. Then, after 3 weeks, Bovine Type II collagen (2 mg/mL) was emulsified in Incomplete Freund's adjuvant at 1:1 and injected subcutaneously to the DBA-1J mice at the base of the tail with 100 μL/head to prepare rheumatoid arthritis animal models.
# (§2) As a normal control group, 0.5% methyl cellulose (MC) was orally administered to healthy DBA-1J mice, and as a comparative control group, 0.5% MC was orally administered to the prepared rheumatoid arthritis mouse models, daily for 2 weeks. Methotrexate (MTX, 2 mg/kg/2 day), hydroxychloroquine (HCQ, 80 mg/kg/day), which are commercially available therapeutic agents for rheumatoid arthritis, and hydroflumethiazide (5 mg/kg/day or 20 mg/kg/day) were orally administered daily for 2 weeks to the prepared rheumatoid arthritis mouse models, respectively.
# Arthritis indices were measured on day 9 and 14 after the administration of each drug in each of the control groups and experimental groups on the basis of the following criteria. Reference: 0, No edema or swelling: 1, Mild edema and redness confined to the joint: 2, Mild edema and redness from the joint to carpal bone and tarsal bone: 3, Moderate edema and redness from the joint to carpal bone and tarsal bone: 4, Overall edema and redness and joint stiffness: 5. In the arthritis index, the highest score was set to 16 points by summing up the four limb scores. […]
# [2] = system: rheumatoid arthritis DBA-1J mouse model; assay: Histopathological quantification of ankle regions (H&E, safranin-O) in rheumatoid arthritis DBA-1J mouse model; assay type: in vivo
# Procedure: as §1, §2
# On day 14 of administration, the mice in each of the control groups and experimental groups were sacrificed, and then joint staining photographs were taken through the following process. The ankle areas of the sacrificed mice were subjected to general tissue treatment processes such as demineralization, trimming, dehydration, paraffin embedding, and microtome cutting to prepare specimens for histopathological examination. Then, Hematoxylin & Eosin (H&E) and safranin-O stainings were performed, and histopathological changes were observed using an optical microscope (FIG. 5).
# In addition, the degrees of synovium proliferation, bone destruction, and cartilage damage were quantified, and the results are shown in Table 5 below.
# [3] = system: rheumatoid arthritis DBA-1J mouse model; assay: Arthritis index in collagen-induced rheumatoid arthritis DBA-1J mouse model; assay type: in vivo
# Procedure: as §1, §2
# […] Reference: 0, No edema or swelling: 1, Mild edema and redness confined to the joint: 2, Mild edema and redness from the joint to carpal bone and tarsal bone: 3, Moderate edema and redness from the joint to carpal bone and tarsal bone: 4, Overall edema and redness and joint stiffness: 5. In the arthritis index, the highest score was set to 16 points by summing up the four limb scores. In addition, the size of the lower extremity edema was measured using a micrometer on day 14 after each drug was administered in each of the control groups and experimental groups.
# RAW 264.7 = assay: MTT assay cell viability; assay type: cell-based; details: for Cytotoxicity (MTT assay): concentrations of Table 1
# [4] = system: rheumatoid arthritis DBA-1J mouse model; assay: Histopathological quantification of ankle regions (H&E, safranin-O) in rheumatoid arthritis DBA-1J mouse model; assay type: in vivo; details: oral, FIG. 6
# TNF-α = TNF-α expression level by ELISA in LPS-induced RAW 264.7 cells; assay type: cell-based; details: for TNF-α: LPS 10 ng/ml-induced RAW 264.7, ELISA
# Procedure: In addition, in order to confirm an effect of inhibiting the TNF-α expression of hydroflumethiazide in induced inflammatory cells, an experiment was performed as follows. RAW 264.7 cells were treated with DMSO at a concentration of 0.01% (v/v) as an untreated control group, and the cells were treated with LPS at a concentration of 10 ng/ml as a control group to induce an inflammatory response. […] Then, the expression level of TNF-α was measured and compared through the ELISA method in the groups treated with respective drugs.
# [5] = Mus musculus, RAW264.7, TNF-α, LPS-induced RAW 264.7, 20 uM
compound,measurement,setting,value
"CCN(CCO)CCCC(C)Nc1ccnc2cc(Cl)ccc12 (stereo not drawn) [HCQ, hydroxychloroquine]","Size of lower extremity edema, Left Feet","[1]; Day 0, G4, 80 mg/kg/day oral",0.12 ± 0.02
same,"Size of lower extremity edema, Right Feet","[1]; Day 0, G4, 80 mg/kg/day oral",0.11 ± 0.02
same,"Size of lower extremity edema, Left Feet","[1]; Day 14, G4, 80 mg/kg/day oral",0.16 ± 0.04
same,"Size of lower extremity edema, Right Feet","[1]; Day 14, G4, 80 mg/kg/day oral",0.15 ± 0.03
same,Bone destruction,"[2]; day 14, G4, 80 mg/kg/day oral",2.3 ± 0.5
same,Cartilage damage,"[2]; day 14, G4, 80 mg/kg/day oral",2 ± 0.6
same,Synovium proliferation,"[2]; day 14, G4, 80 mg/kg/day oral",3 ± 0.0
same,"Total (synovium proliferation, cartilage damage, bone destruction)","[2]; day 14, G4, 80 mg/kg/day oral",7.3 ± 1.0
same,Arthritis index,"[3]; Day 0, G4, 80 mg/kg/day oral",2.3 ± 1.4
same,Arthritis index,"[3]; Day 2, G4, 80 mg/kg/day oral",4.7 ± 1.2
same,Arthritis index,"[3]; Day 4, G4, 80 mg/kg/day oral",6 ± 1.3
same,Arthritis index,"[3]; Day 7, G4, 80 mg/kg/day oral",7 ± 1.3
same,Arthritis index,"[3]; Day 9, G4, 80 mg/kg/day oral",7.5 ± 1.2
same,Arthritis index,"[3]; Day 11, G4, 80 mg/kg/day oral",7.8 ± 1.2
same,Arthritis index,"[3]; Day 14, G4, 80 mg/kg/day oral",8.5 ± 1.5
"NS(=O)(=O)c1cc2c(cc1C(F)(F)F)NCNS2(=O)=O [Hydroflumethiazide, hydroflumethiazide]",Size of the lower extremity edema compared to the MTX-administered group,"[1]; 20 mg/kg/day, day 14",decreased at a similar level to the MTX-administered group
same,"Size of lower extremity edema, Left Feet","[1]; Day 0, G5, 5 mg/kg/day oral",0.09 ± 0.01
same,"Size of lower extremity edema, Right Feet","[1]; Day 0, G5, 5 mg/kg/day oral",0.11 ± 0.03
same,"Size of lower extremity edema, Left Feet","[1]; Day 0, G6, 20 mg/kg/day oral",0.11 ± 0.03
same,"Size of lower extremity edema, Right Feet","[1]; Day 0, G6, 20 mg/kg/day oral",0.1 ± 0.01
same,"Size of lower extremity edema, Left Feet","[1]; Day 14, G5, 5 mg/kg/day oral",0.14 ± 0.02
same,"Size of lower extremity edema, Right Feet","[1]; Day 14, G5, 5 mg/kg/day oral",0.15 ± 0.04
same,"Size of lower extremity edema, Left Feet","[1]; Day 14, G6, 20 mg/kg/day oral",0.15 ± 0.03
same,"Size of lower extremity edema, Right Feet","[1]; Day 14, G6, 20 mg/kg/day oral",0.15 ± 0.03
same,Cytotoxicity (MTT assay),RAW 264.7,cytotoxicity was not exhibited
same,Viability,RAW 264.7; treatment concentration 0.1 uM,106.35%
same,Viability,RAW 264.7; treatment concentration 1 uM,101.82%
same,Viability,RAW 264.7; treatment concentration 10 uM,105.73%
same,Viability,RAW 264.7; treatment concentration 20 uM,101.11%
same,Anti-arthritic effect compared to HCQ,[4],superior to HCQ
same,Bone destruction,"[2]; day 14, G5, 5 mg/kg/day oral",1.8 ± 1.0
same,Cartilage damage,"[2]; day 14, G5, 5 mg/kg/day oral",2 ± 0.9
same,Synovium proliferation,"[2]; day 14, G5, 5 mg/kg/day oral",3 ± 0.0
same,"Total (synovium proliferation, cartilage damage, bone destruction)","[2]; day 14, G5, 5 mg/kg/day oral",6.8 ± 1.8
same,Bone destruction,"[2]; day 14, G6, 20 mg/kg/day oral",2.5 ± 0.5 ^
same,Cartilage damage,"[2]; day 14, G6, 20 mg/kg/day oral",1.7 ± 0.8
same,Synovium proliferation,"[2]; day 14, G6, 20 mg/kg/day oral",2.2 ± 1.2
same,"Total (synovium proliferation, cartilage damage, bone destruction)","[2]; day 14, G6, 20 mg/kg/day oral",6.3 ± 1.5
same,TNF-α,TNF-α; 0.1 uM,1466.48 pg/mL
same,TNF-α,TNF-α; 1 uM,1289.62 pg/mL
same,TNF-α,TNF-α; 10 uM,837.44 pg/mL
same,TNF-α,TNF-α; 20 uM,625.65 pg/mL
same,inhibition at 0.1 µM,"TNF-α; Mus musculus, RAW264.7, TNF-α, LPS-induced RAW 264.7, 0.1 uM",20.8%
same,inhibition at 1 µM,"TNF-α; Mus musculus, RAW264.7, TNF-α, LPS-induced RAW 264.7, 1 uM",30.4%
same,inhibition at 10 µM,"TNF-α; Mus musculus, RAW264.7, TNF-α, LPS-induced RAW 264.7, 10 uM",54.8%
same,inhibition at 20 µM,TNF-α; [5],66.2%
same,Decrease of expression level of TNF-α,"TNF-α; inflammatory response-induced RAW 264.7, at least 0.1 μM",at least 20%
same,Expression level of TNF-α compared to the group treated with PS1145,"TNF-α; inflammatory response-induced RAW 264.7, at least 1 μM",further decreased compared to the group treated with PS1145
same,Decrease of expression of TNF-α,"TNF-α; inflammatory response-induced RAW 264.7, at least 10 μM",at least 50%
same,Arthritis index compared to the MTX-administered group,"[3]; 20 mg/kg/day, day 14",decreased at a similar level to the MTX-administered group
same,Arthritis index,"[3]; Day 0, G5, 5 mg/kg/day oral",2.3 ± 1
same,Arthritis index,"[3]; Day 0, G6, 20 mg/kg/day oral",2.3 ± 1
same,Arthritis index,"[3]; Day 2, G5, 5 mg/kg/day oral",4.2 ± 1.6
same,Arthritis index,"[3]; Day 2, G6, 20 mg/kg/day oral",4 ± 1.7
same,Arthritis index,"[3]; Day 4, G5, 5 mg/kg/day oral",5.8 ± 1.8
same,Arthritis index,"[3]; Day 4, G6, 20 mg/kg/day oral",5 ± 1.4
same,Arthritis index,"[3]; Day 7, G5, 5 mg/kg/day oral",6 ± 2.1
same,Arthritis index,"[3]; Day 7, G6, 20 mg/kg/day oral",5.7 ± 1.5
same,Arthritis index,"[3]; Day 9, G5, 5 mg/kg/day oral",6.7 ± 2.0
same,Arthritis index,"[3]; Day 9, G6, 20 mg/kg/day oral",6.2 ± 1.7
same,Arthritis index,"[3]; Day 11, G5, 5 mg/kg/day oral",7.2 ± 1.7
same,Arthritis index,"[3]; Day 11, G6, 20 mg/kg/day oral",6.8 ± 1.6
same,Arthritis index,"[3]; Day 14, G5, 5 mg/kg/day oral",8 ± 2.5
same,Arthritis index,"[3]; Day 14, G6, 20 mg/kg/day oral",7.3 ± 2.3
same,Arthritis index compared to the HCQ-administered group,[3]; from day 9 of the administration,significantly decreased
"CN(Cc1cnc2nc(N)nc(N)c2n1)c1ccc(C(=O)N[C@@H](CCC(=O)O)C(=O)O)cc1 [MTX, Methotrexate]","Size of lower extremity edema, Left Feet","[1]; Day 0, G3, 2 mg/kg/2 day oral",0.11 ± 0.02
same,"Size of lower extremity edema, Right Feet","[1]; Day 0, G3, 2 mg/kg/2 day oral",0.1 ± 0.02
same,"Size of lower extremity edema, Left Feet","[1]; Day 14, G3, 2 mg/kg/2 day oral",0.12 ± 0.02
same,"Size of lower extremity edema, Right Feet","[1]; Day 14, G3, 2 mg/kg/2 day oral",0.15 ± 0.03
same,Bone destruction,"[2]; day 14, G3, 2 mg/kg/2 day oral",1.5 ± 0.8
same,Cartilage damage,"[2]; day 14, G3, 2 mg/kg/2 day oral",1.3 ± 0.5
same,Synovium proliferation,"[2]; day 14, G3, 2 mg/kg/2 day oral",2.5 ± 0.5
same,"Total (synovium proliferation, cartilage damage, bone destruction)","[2]; day 14, G3, 2 mg/kg/2 day oral",5.3 ± 1.5
same,Arthritis index,"[3]; Day 0, G3, 2 mg/kg/2 day oral",2.3 ± 1.6
same,Arthritis index,"[3]; Day 2, G3, 2 mg/kg/2 day oral",4.2 ± 1.0
same,Arthritis index,"[3]; Day 4, G3, 2 mg/kg/2 day oral",5 ± 1.3
same,Arthritis index,"[3]; Day 7, G3, 2 mg/kg/2 day oral",5.8 ± 1.3
same,Arthritis index,"[3]; Day 9, G3, 2 mg/kg/2 day oral",6.3 ± 1.4
same,Arthritis index,"[3]; Day 11, G3, 2 mg/kg/2 day oral",6.7 ± 1.5
same,Arthritis index,"[3]; Day 14, G3, 2 mg/kg/2 day oral",7 ± 1.3
"O=C(Nc1cc(Cl)cc2c1[nH]c1cnccc12)c1cccnc1 [PS1145, N-(6-chloro-9H-pyrido[3,4-b]indol-8-yl)-3-pyridinecarboxamide dihydrochloride]",Cytotoxicity (MTT assay),RAW 264.7,cytotoxicity was not exhibited
same,Viability,RAW 264.7; treatment concentration 20 uM,99.16%
same,TNF-α,TNF-α; 20 uM,1402.08 pg/mL
same,inhibition at 20 µM,TNF-α; [5],24.3%
